Counter-ions that a name gives are not always drawn.
Each compound was assayed against Akt1 (Homo sapiens (Human), UniProt P31749) (assay: Akt1 kinase assay (Akt1 TR-FRET assay)). Conditions: His-tagged human recombinant full-length Akt1, 10 μM ATP, 1 μM peptide substrate.
Type: biochemical
Text: Biological Assay 1.0: Akt1 Kinase Assay
Akt1 inhibitory activity of compounds of the present invention was quantified employing the Akt1 TR-FRET assay as described in the following paragraphs.
His-tagged human recombinant kinase full-length Akt1 expressed in insect cells was purchased form Invitrogen (part number PV 3599). As substrate for the kinase reaction the biotinylated peptide biotin-Ahx-KKLNRTLSFAEPG (C-terminus in amide form) was used which can be purchased e.g. from the company Biosynthan GmbH (Berlin-Buch, Germany).
For the assay 50 nl of a 100 fold concentrated solution of the test compound in DMSO was pipetted into a black low volume 384 well microtiter plate (Greiner Bio-One, Frickenhausen, Germany), 2 μl of a solution of Akt1 in assay buffer [50 mM TRIS/HCl pH 7.5, 5 mM MgCl2, 1 mM dithiothreitol, 0.02% (v/v) Triton X-100 (Sigma)] were added and the mixture was incubated for 15 min at 22° C. to allow pre-binding of the test compounds to the enzyme before the start of the kinase reaction. Then the kinase reaction was started by the addition of 3 μl of a solution of adenosine-tri-phosphate (ATP, 16.7 μM=>final conc. in the 5 μl assay volume is 10 μM) and substrate (1.67 μM=>final conc. in the 5 μl assay volume is 1 μM) in assay buffer and the resulting mixture was incubated for a reaction time of 60 min at 22° C. The concentration of Akt1 in the assay was adjusted depending of the activity of the enzyme lot and was chosen appropriate to have the assay in the linear range, typical enzyme concentrations were in the range of about 0.05 ng/μl (final conc. in the 5 μl assay volume).
The reaction was stopped by the addition of 5 μl of a solution of HTRF detection reagents (200 nM streptavidine-XL665 [Cisbio] and 1.5 nM anti-phosho-Serine antibody [Millipore, cat. #35-001] and 0.75 nM LANCE Eu-W 1024 labeled anti-mouse IgG antibody [Perkin Elmer]) in an aqueous EDTA-solution (100 mM EDTA, 0.1% (w/v) bovine serum albumin in 50 mM HEPES/NaOH pH 7.5).
The resulting mixture was incubated 1 h at 22° C. to allow the binding of the biotinylated phosphorylated peptide to the streptavidine-XL665 and the antibodies. Subsequently the amount of phosphorylated substrate was evaluated by measurement of the resonance energy transfer from the anti-mouse-IgG-Eu-Chelate to the streptavidine-XL665. Therefore, the fluorescence emissions at 620 nm and 665 nm after excitation at 350 nm was measured in a HTRF reader, e.g. a Rubystar (BMG Labtechnologies, Offenburg, Germany) or a Viewlux (Perkin-Elmer). The ratio of the emissions at 665 nm and at […] was taken as the measure for the amount of phosphorylated substrate. The data were normalised (enzyme reaction without inhibitor=0% inhibition, all other assay components but no enzyme=100% inhibition).

Sequence of Akt1 (P31749 whole entry): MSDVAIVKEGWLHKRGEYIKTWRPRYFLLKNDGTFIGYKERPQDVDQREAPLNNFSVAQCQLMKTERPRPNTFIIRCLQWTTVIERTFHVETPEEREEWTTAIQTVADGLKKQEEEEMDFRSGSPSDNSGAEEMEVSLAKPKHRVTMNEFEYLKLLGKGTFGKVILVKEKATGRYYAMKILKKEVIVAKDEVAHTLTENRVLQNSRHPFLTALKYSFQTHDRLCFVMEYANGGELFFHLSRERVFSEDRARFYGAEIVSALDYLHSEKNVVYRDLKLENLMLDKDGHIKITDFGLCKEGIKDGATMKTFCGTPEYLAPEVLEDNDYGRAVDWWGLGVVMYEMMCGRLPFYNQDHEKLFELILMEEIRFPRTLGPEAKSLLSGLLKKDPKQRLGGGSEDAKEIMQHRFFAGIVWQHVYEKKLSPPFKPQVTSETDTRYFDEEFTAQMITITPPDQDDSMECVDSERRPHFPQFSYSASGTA

Structure (SMILES)	IC50 [nM]
NC1(c2ccc(-c3nc4c5ccc(Br)cc5nn4cc3-c3ccccc3)cc2)CCC1 [Example 4.3, 1-[4-(8-Bromo-3-phenylpyrimido[1,2-b]indazol-2-yl)phenyl]cyclobutylamine hydrochloride]	87
NC1(c2ccc(-c3nc4c5ccc(-c6ccc(F)c(CO)c6)cc5nn4cc3-c3ccccc3)cc2)CCC1 [Example 4.4, 5-{2-[4-(1-Aminocyclobutyl)phenyl]-3-phenylpyrimido[1,2-b]indazol-8-yl}-2-fluorobenzyl alcohol]	43
NC1(c2ccc(-c3nc4c5ccc(-c6ccc(F)cc6)cc5nn4cc3-c3ccccc3)cc2)CCC1 [Example 4.2, 1-{4-[8-(4-Fluorophenyl)-3-phenylpyrimido[1,2-b]indazol-2-yl]-phenyl}cyclobutylamine]	229
COc1cc(-c2ccc3c(c2)nn2cc(-c4ccccc4)c(-c4ccc(C5(N)CCC5)cc4)nc32)ccc1F [Example 4.6, 1-{4-[8-(4-Fluoro-3-methoxyphenyl)-3-phenylpyrimido[1,2-b]indazol-2-yl]phenyl}cyclobutylamine]	458
CNc1c(-c2ccccc2)c(-c2ccc(C3(N)CCC3)cc2)nc2c3cc(F)ccc3nn12 [Example 3, 2-[4-(1-Aminocyclobutyl)phenyl]-9-fluoro-N-methyl-3-phenylpyrimido[1,2-b]indazol-4-amine]	2630
COC(=O)c1ccc2c(c1)nn1cc(-c3ccccc3)c(-c3ccc(C4(N)CCC4)cc3)nc21 [Example 4.8, 2-[4-(1-Aminocyclobutyl)phenyl]-3-phenylpyrimido[1,2-b]indazole-8-carboxylic acid methyl ester]	111
NC(=O)c1ccc(-c2ccc3c(c2)nn2cc(-c4ccccc4)c(-c4ccc(C5(N)CCC5)cc4)nc32)cc1 [Example 4.10, 4-{2-[4-(1-Aminocyclobutyl)phenyl]-3-phenylpyrimido[1,2-b]indazol-8-yl}benzamide]	21

The next lines start with the values.

IC50 [nM]	Structure (SMILES)
5600	NC1(c2ccc(-c3nc4c5cccc(-c6ccc(F)cc6)c5nn4cc3-c3ccccc3)cc2)CCC1 [Example 8.2, 1-{4-[7-(4-Fluorophenyl)-3-phenylpyrimido[1,2-b]indazol-2-yl]-phenyl}cyclobutylamine]
19	NC1(c2ccc(-c3nc4c5cc(-c6cn[nH]c6)ccc5nn4cc3-c3ccccc3)cc2)CCC1 [Example 6.7, 1-{4-[3-Phenyl-9-(1H-pyrazol-4-yl)pyrimido[1,2-b]indazol-2-yl]phenyl}-cyclobutylamine]
30	NC(=O)/C=C/c1ccc2nn3cc(-c4ccccc4)c(-c4ccc(C5(N)CCC5)cc4)nc3c2c1 [Example 15.5, (E)-3-{2-[4-(1-Aminocyclobutyl)phenyl]-3-phenylpyrimido[1,2-b]indazol-9-yl}acrylamide]
17000	CS(=O)(=O)c1cccc(-c2cccc3c2nn2cc(-c4ccccc4)c(-c4ccc(C5(N)CCC5)cc4)nc32)c1 [Example 8.4, 1-{4-[7-(3-Mesylphenyl)-3-phenylpyrimido[1,2-b]indazol-2-yl]-phenyl}cyclobutylamine]
18	NC1(c2ccc(-c3nc4c5cc(-c6ccc(CO)cc6)ccc5nn4cc3-c3ccccc3)cc2)CCC1 [Example 6.4, 4-{2-[4-(1-Aminocyclobutyl)phenyl]-3-phenylpyrimido[1,2-b]indazol-9-yl}benzyl alcohol formiate]

— patent publication US8987286B2, “Substituted pyrimido[1,2-b]indazoles and their use as modulators of the Pi3K/Akt pathway” (Bayer Intellectual Property GmbH, priority 2010, dated 2015)
